Each structure is given as a SMILES string.

Common to all, as to test: Phosphatase profiling, pNPP substrate
Holding throughout (type): biochemical

One assay addresses DUSP22 (MKPX) (Homo sapiens, UniProt Q9NRW4). The note with it: 30 μM, triplicate; negative = inhibition; listed as CSDDD2320. As to the method:
(§1) Assays were performed to profile compound CSDDD2320 against 21 phosphatase targets at 1 concentration (30 μM) in triplicate measurements. The aim was to identify whether the compound can affect the activity of the various phosphatase targets selected.
(§2) Protein Phosphatase Assay: The DUSP22, PTPN2 (TC-PTP), PTPN7 (LC-PTP), PTPRA (LRP), PTPRC (CD45), PTPRE, PTPRS, PTPN1(PTP1B) and PTPN13(FAP-1) phosphatase activity was determined by performing assays at 37° C. for 15 minutes in a final volume of 100 μl according to the following assay reaction recipe:
(§3) Component 1. 5 μl of diluted active protein phosphatase
(§4) Component 2. 50 μl of 1.5 mM pNPP substrate assay solution
(§5) Component 3. 25 μl of phosphatase assay buffer
(§6) Component 4. 20 μl of compound (150 μM) or 10% DMSO
(§7) The assay was started by incubating the reaction mixture at 37° C. for 15 minutes. After the 15 minute incubation period, the assay was terminated by the addition of 25 μl of 2N NaOH stopping solution. The absorbance of the reaction solution was measured in a spectrophotometer at 405 nm. Blank control was set up that included all the assay components except the addition of the pNPP substrate (replaced with equal volume of phosphatase assay buffer). The corrected activity for various phosphatase targets was determined by removing the blank control value.

For a further assay, the target named is PTPN1 (PTP1B) (Homo sapiens, UniProt P18031). The note with it: 30 μM, triplicate; negative = inhibition. As to the method:
as §1, §2, §3, §4, §5, §6, §7

The target in another assay is PTPN13 (FAP-1) (Homo sapiens, UniProt Q12923). The note with it: 30 μM, triplicate; positive = activation. As to the method:
as §1, §2, §3, §4, §5, §6, §7

The next assay addresses PTPN2 (TC-PTP) (Homo sapiens, UniProt P17706). The note with it: 30 μM, triplicate; positive = activation. Here is the method:
as §1, §2, §3, §4, §5, §6, §7

A further assay concerns the target PTPN7 (LC-PTP) (Homo sapiens, UniProt P35236). The conditions noted are these: 30 μM, triplicate; positive = activation. Here is the method: as §1, §2, §3, §4, §5, §6, §7
The next assay deals with PTPRA (LRP) (Homo sapiens, UniProt P18433). The conditions noted are these: 30 μM, triplicate; positive = activation. Here is the method: as §1, §2, §3, §4, §5, §6, §7
PTPRA (LRP), sequence (P18433 20-802, species assumed): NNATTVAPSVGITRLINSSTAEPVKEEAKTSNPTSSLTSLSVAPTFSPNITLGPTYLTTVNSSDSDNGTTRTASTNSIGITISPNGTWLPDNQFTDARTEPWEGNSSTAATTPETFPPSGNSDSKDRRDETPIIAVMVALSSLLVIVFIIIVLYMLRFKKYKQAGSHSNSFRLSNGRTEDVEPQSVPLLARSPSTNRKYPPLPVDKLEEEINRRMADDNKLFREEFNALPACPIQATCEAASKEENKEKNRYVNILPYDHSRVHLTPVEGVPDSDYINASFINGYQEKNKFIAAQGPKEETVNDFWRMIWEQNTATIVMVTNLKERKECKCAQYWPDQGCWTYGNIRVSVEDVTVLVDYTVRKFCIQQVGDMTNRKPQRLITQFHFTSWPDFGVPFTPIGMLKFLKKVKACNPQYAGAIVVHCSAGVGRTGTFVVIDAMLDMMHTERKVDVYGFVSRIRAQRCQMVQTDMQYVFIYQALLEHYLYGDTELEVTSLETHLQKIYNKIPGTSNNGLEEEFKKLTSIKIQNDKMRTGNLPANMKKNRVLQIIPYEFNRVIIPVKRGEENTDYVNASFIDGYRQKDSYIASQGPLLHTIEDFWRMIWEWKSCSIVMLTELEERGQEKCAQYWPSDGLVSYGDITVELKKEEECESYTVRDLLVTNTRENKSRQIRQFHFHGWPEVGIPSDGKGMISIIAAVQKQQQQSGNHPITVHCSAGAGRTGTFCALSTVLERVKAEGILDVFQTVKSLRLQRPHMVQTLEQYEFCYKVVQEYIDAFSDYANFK
The next assay addresses PTPRC (CD45) (Homo sapiens, UniProt P08575). The conditions noted are these: 30 μM, triplicate; negative = inhibition; listed as CSDDD2320. Here is the method: as §1, §2, §3, §4, §5, §6, §7
A further assay addresses PTPRE (Homo sapiens, UniProt P23469). The conditions noted are these: 30 μM, triplicate; negative = inhibition; listed as CSDDD2320. As to the method:
as §1, §2, §3, §4, §5, §6, §7

The target of a further assay is PTPRS (PTP-sigma) (Homo sapiens, UniProt Q13332). The note with it: 30 μM, triplicate; negative = inhibition. Here is the method:
as §1, §2, §3, §4, §5, §6, §7

PTPRE, sequence (P23469 20-700, species assumed): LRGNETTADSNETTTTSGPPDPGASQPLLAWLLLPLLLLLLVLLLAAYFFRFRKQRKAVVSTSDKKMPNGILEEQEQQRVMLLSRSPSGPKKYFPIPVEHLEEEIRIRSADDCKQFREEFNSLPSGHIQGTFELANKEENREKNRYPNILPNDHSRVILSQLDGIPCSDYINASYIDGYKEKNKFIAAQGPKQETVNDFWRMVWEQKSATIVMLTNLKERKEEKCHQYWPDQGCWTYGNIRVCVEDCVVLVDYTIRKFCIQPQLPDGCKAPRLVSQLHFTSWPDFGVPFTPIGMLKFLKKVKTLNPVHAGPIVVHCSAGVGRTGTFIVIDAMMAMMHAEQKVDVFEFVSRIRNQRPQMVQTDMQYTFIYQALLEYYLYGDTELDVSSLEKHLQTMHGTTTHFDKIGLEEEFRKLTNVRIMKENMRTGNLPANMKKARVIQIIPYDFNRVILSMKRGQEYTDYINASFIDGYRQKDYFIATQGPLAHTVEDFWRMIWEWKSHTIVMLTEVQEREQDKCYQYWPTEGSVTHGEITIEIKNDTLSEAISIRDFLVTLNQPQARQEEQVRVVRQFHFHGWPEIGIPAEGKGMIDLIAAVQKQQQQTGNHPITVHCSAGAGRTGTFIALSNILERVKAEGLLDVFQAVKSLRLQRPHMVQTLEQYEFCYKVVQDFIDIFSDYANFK
DUSP22 (MKPX), sequence (Q9NRW4 whole entry, species assumed): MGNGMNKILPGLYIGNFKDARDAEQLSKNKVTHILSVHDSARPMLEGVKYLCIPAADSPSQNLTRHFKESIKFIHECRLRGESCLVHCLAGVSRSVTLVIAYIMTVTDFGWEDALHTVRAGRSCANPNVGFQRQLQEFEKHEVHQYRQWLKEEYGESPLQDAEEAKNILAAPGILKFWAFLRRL
PTPRC (CD45), sequence (P08575 26-1306, species assumed): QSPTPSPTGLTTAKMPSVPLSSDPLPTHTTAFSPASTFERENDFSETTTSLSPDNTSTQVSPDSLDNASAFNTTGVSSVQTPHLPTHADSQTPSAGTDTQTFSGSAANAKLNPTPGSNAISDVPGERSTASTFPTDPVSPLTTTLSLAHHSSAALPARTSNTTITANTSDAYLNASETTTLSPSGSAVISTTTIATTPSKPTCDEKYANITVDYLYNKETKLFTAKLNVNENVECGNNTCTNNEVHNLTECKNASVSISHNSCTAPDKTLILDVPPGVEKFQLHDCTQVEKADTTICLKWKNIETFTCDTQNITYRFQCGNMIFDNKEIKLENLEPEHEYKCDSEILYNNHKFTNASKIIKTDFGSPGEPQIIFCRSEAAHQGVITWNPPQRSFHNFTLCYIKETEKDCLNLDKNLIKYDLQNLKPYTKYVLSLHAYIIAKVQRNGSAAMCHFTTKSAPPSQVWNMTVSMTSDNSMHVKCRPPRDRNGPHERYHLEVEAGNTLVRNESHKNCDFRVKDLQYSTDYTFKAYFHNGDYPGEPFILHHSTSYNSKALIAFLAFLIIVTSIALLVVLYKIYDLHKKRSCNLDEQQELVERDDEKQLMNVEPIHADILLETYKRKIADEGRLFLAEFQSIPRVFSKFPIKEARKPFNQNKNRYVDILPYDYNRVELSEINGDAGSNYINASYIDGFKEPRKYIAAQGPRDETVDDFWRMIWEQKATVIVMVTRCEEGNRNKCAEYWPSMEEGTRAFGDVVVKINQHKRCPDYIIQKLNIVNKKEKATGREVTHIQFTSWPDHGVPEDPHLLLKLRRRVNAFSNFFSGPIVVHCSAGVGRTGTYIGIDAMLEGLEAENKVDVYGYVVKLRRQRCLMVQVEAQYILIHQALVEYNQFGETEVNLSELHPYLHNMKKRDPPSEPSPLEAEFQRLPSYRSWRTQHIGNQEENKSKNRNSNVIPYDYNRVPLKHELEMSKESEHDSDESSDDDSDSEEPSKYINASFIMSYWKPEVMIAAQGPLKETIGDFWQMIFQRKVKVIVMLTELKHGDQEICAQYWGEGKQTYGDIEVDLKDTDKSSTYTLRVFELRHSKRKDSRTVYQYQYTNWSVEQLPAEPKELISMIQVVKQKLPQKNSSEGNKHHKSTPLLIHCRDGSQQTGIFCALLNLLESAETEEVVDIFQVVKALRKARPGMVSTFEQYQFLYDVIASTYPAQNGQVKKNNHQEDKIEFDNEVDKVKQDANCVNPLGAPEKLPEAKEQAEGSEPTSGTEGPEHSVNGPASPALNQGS
PTPN2 (TC-PTP), sequence (P17706 whole entry, species assumed): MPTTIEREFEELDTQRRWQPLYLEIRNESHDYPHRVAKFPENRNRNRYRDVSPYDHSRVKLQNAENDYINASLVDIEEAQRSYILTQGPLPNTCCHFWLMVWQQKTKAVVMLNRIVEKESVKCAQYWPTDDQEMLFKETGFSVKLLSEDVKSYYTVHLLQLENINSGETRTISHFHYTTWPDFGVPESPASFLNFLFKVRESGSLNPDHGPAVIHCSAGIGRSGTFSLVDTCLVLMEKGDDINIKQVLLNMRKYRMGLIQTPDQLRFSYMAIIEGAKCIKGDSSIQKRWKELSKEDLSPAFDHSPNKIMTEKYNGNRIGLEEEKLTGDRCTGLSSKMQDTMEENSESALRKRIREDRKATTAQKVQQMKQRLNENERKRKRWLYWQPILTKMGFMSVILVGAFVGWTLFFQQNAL
PTPN7 (LC-PTP), sequence (P35236 whole entry, species assumed): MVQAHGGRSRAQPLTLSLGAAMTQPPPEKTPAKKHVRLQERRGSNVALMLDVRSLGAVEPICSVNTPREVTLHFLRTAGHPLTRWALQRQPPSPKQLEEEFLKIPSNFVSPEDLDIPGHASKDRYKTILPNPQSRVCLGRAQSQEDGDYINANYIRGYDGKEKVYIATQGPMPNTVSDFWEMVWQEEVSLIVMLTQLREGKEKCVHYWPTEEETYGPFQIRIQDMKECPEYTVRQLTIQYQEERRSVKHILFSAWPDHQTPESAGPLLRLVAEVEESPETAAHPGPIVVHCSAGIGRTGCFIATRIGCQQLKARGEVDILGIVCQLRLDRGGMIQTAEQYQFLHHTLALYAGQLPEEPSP
PTPN1 (PTP1B), sequence (P18031 whole entry, species assumed): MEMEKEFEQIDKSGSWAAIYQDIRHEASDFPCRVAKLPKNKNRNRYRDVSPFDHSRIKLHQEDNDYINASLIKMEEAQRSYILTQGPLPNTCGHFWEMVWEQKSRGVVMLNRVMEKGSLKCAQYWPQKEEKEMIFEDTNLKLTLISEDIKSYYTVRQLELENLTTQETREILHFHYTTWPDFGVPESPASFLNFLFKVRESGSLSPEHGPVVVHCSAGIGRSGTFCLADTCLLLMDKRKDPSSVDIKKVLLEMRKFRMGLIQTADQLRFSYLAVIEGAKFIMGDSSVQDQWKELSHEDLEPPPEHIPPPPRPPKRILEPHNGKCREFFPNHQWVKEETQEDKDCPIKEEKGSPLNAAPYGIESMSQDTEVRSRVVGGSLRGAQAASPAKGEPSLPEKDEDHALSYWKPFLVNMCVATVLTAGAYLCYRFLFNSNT

Turning to `O=S(=O)(O)c1cc(O)c2c(S(=O)(=O)O)cccc2c1` [RR527], the “% Change (activity change compared to control)” value is on record as −13% on DUSP22 (MKPX); −4% at PTPN1 (PTP1B); 6% at PTPN13 (FAP-1); 2% at PTPN2 (TC-PTP); 7% at PTPN7 (LC-PTP); 5% on PTPRA (LRP). For the same compound, the “% Change (activity change compared to control)” value was −12% on PTPRC (CD45), −11% at PTPRE and −6% on PTPRS (PTP-sigma).
